Assay results: paper PMC7041945, “Misfolded proteins bind and activate death receptor 5 to trigger apoptosis during unresolved endoplasmic reticulum stress” (eLife, 2020)
Residues, ends and D or L forms follow the SMILES beside them. *: point of attachment. Cbz = O=C(OCc1ccccc1)*; CH2F = FC*

How the values were obtained:
HCT116 cells = assay: Annexin V (and SytoxBlue) flow cytometry for apoptosis; assay type: cell-based, Homo sapiens; conditions: for Annexin V +, Sytox Blue + cells / Annexin V +, Sytox Blue - cells / Annexin V -, Sytox Blue - cells: transfected 24 hr, no z-VAD
Method: Cells seeded in a 6-well plate were transfected with the specified plasmid for 24 hr and harvested via trypsinization in complete media to allow a 30 min recovery at 37°C. The samples were then centrifuged at 500xg for 5 min and resuspended In 150 μl of a 1:20 dilution of Annexin V-AlexaFluor 647 conjugate (Thermo Scientific #A23204). Samples were transferred to a 96-well U-bottom plate and incubated in the dark for 15 min at RT. The distribution of apoptotic cells was determined by flow cytometry on a BD LSR II.

[1] = test system: DR5 / ERGIC53 / giantin in HCT116 cells; assay: Immunofluorescence co-localization (Pearson's correlation per cell); assay type: cell-based, Homo sapiens; conditions: for Pearson's correlation per cell of GFP-tagged peptide with DR5 / Pearson's correlation per cell of GFP-tagged peptide with ERGIC: HCT116, 24 hr post-transfection; for Pearson's correlation per cell of GFP-tagged peptide with DR5 / Pearson's correlation per cell of GFP-tagged peptide with ERGIC / Pearson's correlation per cell between DR5 and ERGIC: Mean ± SEM; for Pearson's correlation per cell between DR5 and ERGIC: HCT116 expressing GFP-tagged peptide, 24 hr
Method: HCT116 were seeded at 25000 cells per well in an 8-well glass-bottom μSlide (Ibidi 80827) pre-coated with Collagen IV (Sigma-Aldrich C6745, 0.03 mg/ml in PBS incubated for 30 min at RT, and then rinsed off with PBS x 3) in growth media 18 hr prior to transfection (see above for protocol). 24 hr post-transfection, the cells were fixed using 4% paraformaldehyde (PFA, Electron Microscopy Sciences) or methanol, depending on the antibody combination used for immunostaining (see table below). Samples were protected from light after fixation to preserve GFP fluorescence.
For fixation with 4% PFA, 32% PFA was added directly to the well in growth media for a 1:8 dilution and incubated for 10–15 min at RT. Cells were then permeabilized with PHEM buffer (60 mM PIPES, 25 mM HEPES, 10 mM EGTA, 2 mM MgCl2-hexahydrate, pH 6.9) containing 0.1% Triton-X100 for 10 min at RT for three washes.
For fixation with methanol, media was removed and cells were washed with cold PBS. Then methanol (pre-cooled at −20°C) was added to the well and incubated at −20°C for 3–4 min. The methanol was promptly aspirated and replaced with PHEM buffer (without Triton X-100), followed by two more 10 min washes with PHEM at RT.
To block against non-specific antibody interactions, cells were rinsed in PHEM (without 0.1% Triton X-100) and then incubated with PHEM containing 2% normal goat serum (Jackson Immunoresearch Laboratories, 005-000-121) for 1 hr at RT. Primary antibodies were incubated in blocking solution overnight at 4°C at the dilution noted in the table above. Cells were then washed with PHEM buffer for 10 min at RT x three and incubated with secondary antibodies, anti-mouse-AlexaFluor546 (Invitrogen A11030) and anti-rabbit-AlexaFluor633 (Invitrogen A21071), diluted 1:1000 in PHEM with 2% normal goat serum. (Secondary antibody solutions were centrifuged at 15000xg for 20 mins at 4°C to remove aggregates prior to incubating with cell samples.) After a 1 hr incubation at RT, cells were washed with PHEM buffer once, then incubated with PHEM buffer containing nuclear stain (DAPI, Molecular Probes, Eugene, OR, D-1306, 5 μg/mL), and finally rinsed with PHEM buffer twice before imaging.
Samples were imaged on a spinning disk confocal with Yokogawa CSUX A1 scan head, Andor iXon EMCCD camera, and 40x Plan Apo air Objective NA 0.95 or 100x ApoTIRF objective NA 1.49 (Nikon).
From the 405 nm channel, cell nuclei were identified as primary objects using maximum correlation thresholding (MCT) and shape to distinguish clumped objects. Secondary objects were outlined using propagation from the nuclei (DAPI) after applying MCT from the 488 nm, 561 nm, and 633 nm channels. Tertiary objects for each cell was identified as the mask of each nucleus subtracted from the mask of its corresponding secondary object in each channel, yielding masks for intracellular GFP-tagged protein from the 488 nm channel, for intracellular DR5 from the 561 nm channel, and for the organelle marker in the 633 nm channel. For overlap between DR5 and MPZ/RHO-GFP, Pearson’s correlation coefficients were calculated within the MPZ/RHO mask for each cell to filter out untransfected cells. For overlap between DR5/MPZ and organelle markers, Pearson’s correlation coefficients were calculated within tertiary objects for the organelle marker in GFP+ cells. Statistical analyses for all data sets were performed using GraphPad Prism 6.0.

DR5 ECD = assay: Peptide array binding of Fc-tagged DR5 ectodomain (MPZ and RHO sequences; amino acid enrichment); parameters: species or system human; conditions: rhodopsin EL1-EL3 peptide array; for Corrected rawintden - min: min subtracted; for normalized (binding intensity): normalized from corrected rawintden - min
Method: Peptide arrays were purchased from the MIT Biopolymers Laboratory as described previously in [Karagöz et al. (2017)] and [Gardner and Walter (2011)]. The sequences of each protein were tiled from N- to C-terminus in 18-amino-acid-long peptides shifting by three amino acids from the previous spot. The arrays were incubated in methanol for 10 min, and then washed in binding buffer (50 mM HEPES pH 7.2, 250 mM NaCl, 10% glycerol) for 10 min at room temperature x 3. 500 nM of Fc-tagged DR5 extracellular domain (ECD, a kind gift from Scot Marsters) was incubated with the array in binding buffer at room temperature for 1 hr. Then, the array was washed three times for 10 min with binding buffer to remove unbound protein. The bound DR5 ECD was then transferred onto a nitrocellulose membrane via a semi-dry transfer apparatus (Owl HEP-1) at 80 mA for 45 min at 4°C. The membrane was then blocked with 1xPBST with 5% milk for 1 hr at room temperature and probed with 1:1000 anti-Fc (One World Lab #603–510) overnight at 4°C followed by 1:10000 anti-mouse IgG-HRP (Promega #W4021) for 1 hr at RT. The membrane was imaged using chemi-luminescence with the Bio-Rad Universal Hood II Gel Doc below saturating pixel intensities. The signal of each spot was quantified using Max Quant and normalized to the maximum intensity of all the spots on the same array.

[2] = test system: caspase 8 in HCT116 lysates; assay: Caspase 8 activity (caspase glo 8) of cell lysates / IP inputs; assay type: cell-based, Homo sapiens; conditions: for average fold change relative to empty: HCT116, rep 1, average of 4 dilutions; for norm RLUs: rep 2, normalized by lysate quant
Method: Cells harvested from a 6-well plate were resuspended in 100 μl of lysis buffer (30 mM HEPES pH 7.2, 150 mM NaCl, 1% Triton X-100) and lysed via needle shearing (25G, 10 passes) followed by a 30 min incubation on ice. Supernatant was collected after centrifuging at 1000xg for 5 min. For the caspase activity assay, 10 μl of supernatant diluted with lysis buffer (1:25, 1:50, 1:100 to stay within linear range of luminescence measurements) was incubated with 10 μl of the luminogenic caspase glo 8 substrate (Promega #PRG8200) in a 384-white walled plate (Corning 3574) for 45 min at RT before measuring luminescence on a Spectramax-M5 plate reader.

ETEREQPEGGRDAISIEHEA [MPZ-ecto peptide^Arom→Glu-eGFP, expressed GFP-tagged construct with all aromatic residues of the MPZ-ecto peptide mutated to Glu]
Annexin V +, Sytox Blue + cells (HCT116 cells): 8.17% of cells | Annexin V +, Sytox Blue - cells (HCT116 cells): 4.89% of cells | Annexin V -, Sytox Blue - cells (HCT116 cells): 86.5% of cells | Pearson's correlation per cell of GFP-tagged peptide with DR5 [1]: 0.27 ± 0.03 | Pearson's correlation per cell of GFP-tagged peptide with ERGIC [1]: 0.25 ± 0.03 | Pearson's correlation per cell between DR5 and ERGIC [1]: 0.50 ± 0.03

HQGSNFMNGTEGPNFYVP
Corrected rawintden - min (DR5 ECD): 360135 | normalized (binding intensity) (DR5 ECD): 0.0878

RYIPEGMQCSCGIDYYTL
Corrected rawintden - min (DR5 ECD): 1340468 | normalized (binding intensity) (DR5 ECD): 0.3268

YTLKPEVNNESTHQGSNF
Corrected rawintden - min (DR5 ECD): 870062 | normalized (binding intensity) (DR5 ECD): 0.2121

VTGVVRSPFEQPQYYLAE
Corrected rawintden - min (DR5 ECD): 402567 | normalized (binding intensity) (DR5 ECD): 0.09815

FTWREQPEGGRDAISIFHEA [MPZ-ecto peptide^Tyr→Glu-eGFP, expressed GFP-tagged construct with Tyr → Glu mutations in the MPZ-ecto peptide]
Annexin V +, Sytox Blue + cells (HCT116 cells): 5.66% of cells | Annexin V +, Sytox Blue - cells (HCT116 cells): 3.64% of cells | Annexin V -, Sytox Blue - cells (HCT116 cells): 90.3% of cells | Pearson's correlation per cell of GFP-tagged peptide with DR5 [1]: 0.15 ± 0.03 | Pearson's correlation per cell of GFP-tagged peptide with ERGIC [1]: 0.22 ± 0.05 | Pearson's correlation per cell between DR5 and ERGIC [1]: 0.44 ± 0.04

FSNVTGVVRSPFEQPQYY
Corrected rawintden - min (DR5 ECD): 470277 | normalized (binding intensity) (DR5 ECD): 0.1147

PWQLHGYFVFGPTGCNLE
Corrected rawintden - min (DR5 ECD): 1093768 | normalized (binding intensity) (DR5 ECD): 0.2667

NLERYIPEGMQCSCGIDY
Corrected rawintden - min (DR5 ECD): 395368 | normalized (binding intensity) (DR5 ECD): 0.09639

VVRSPFEQPQYYLAEPWQ
Corrected rawintden - min (DR5 ECD): 375649 | normalized (binding intensity) (DR5 ECD): 0.09158

SNFMNGTEGPNFYVPFSN
Corrected rawintden - min (DR5 ECD): 337810 | normalized (binding intensity) (DR5 ECD): 0.08236

YFVFGPTGCNLERYIPEG
Corrected rawintden - min (DR5 ECD): 490636 | normalized (binding intensity) (DR5 ECD): 0.1196

YVPFSNVTGVVRSPFEQP
Corrected rawintden - min (DR5 ECD): 640840 | normalized (binding intensity) (DR5 ECD): 0.1562

INS1
average fold change relative to empty ([2]; siDR5): 1.524 fold change | average fold change relative to empty ([2]; siNT): 2.0013 fold change

EQPQYYLAEPWQLHGYFV
Corrected rawintden - min (DR5 ECD): 507200 | normalized (binding intensity) (DR5 ECD): 0.1237

TGCNLERYIPEGMQCSCG
Corrected rawintden - min (DR5 ECD): 1149984 | normalized (binding intensity) (DR5 ECD): 0.2804

PNFYVPFSNVTGVVRSPF
Corrected rawintden - min (DR5 ECD): 624655 | normalized (binding intensity) (DR5 ECD): 0.1523

VNNESTHQGSNFMNGTEG
Corrected rawintden - min (DR5 ECD): 294091 | normalized (binding intensity) (DR5 ECD): 0.0717

insGFP
norm RLUs ([2]; dilution 0.025): 1827.1 RLUs | norm RLUs ([2]; dilution 0.05): 3654.19 RLUs | norm RLUs ([2]; dilution 0.1): 8264.86 RLUs

KPEVNNESTHQGSNFMNG
Corrected rawintden - min (DR5 ECD): 941789 | normalized (binding intensity) (DR5 ECD): 0.2296

SCGIDYYTLKPEVNNEST
Corrected rawintden - min (DR5 ECD): 1488599 | normalized (binding intensity) (DR5 ECD): 0.3629

FGPTGCNLERYIPEGMQC
Corrected rawintden - min (DR5 ECD): 1562181 | normalized (binding intensity) (DR5 ECD): 0.3809

SPFEQPQYYLAEPWQLHG
Corrected rawintden - min (DR5 ECD): 517083 | normalized (binding intensity) (DR5 ECD): 0.1261

MNGTEGPNFYVPFSNVTG
Corrected rawintden - min (DR5 ECD): 827091 | normalized (binding intensity) (DR5 ECD): 0.2016

PEGMQCSCGIDYYTLKPE
Corrected rawintden - min (DR5 ECD): 1657676 | normalized (binding intensity) (DR5 ECD): 0.4041

LAEPWQLHGYFVFGPTGC
Corrected rawintden - min (DR5 ECD): 890759 | normalized (binding intensity) (DR5 ECD): 0.2172

IDYYTLKPEVNNESTHQG
Corrected rawintden - min (DR5 ECD): 1420533 | normalized (binding intensity) (DR5 ECD): 0.3463

DR5 siRNA: siRNA oligonucleotides against DR5 (Dharmacon L-004448-00-0005) (guide AAGACCCUUGUGCUCGUUGUCUU; further chemistry not given here) [reference compound]
PARP cleavage and annexin V staining after DR5 knockdown (HCT116 cells; DR5 siRNA 48 hr, then MPZ-GFP overexpression 24 hr): significantly reduced PARP cleavage and annexin V staining | DR5 immunofluorescence signal ([1]; siRNA 48 hr, MPZ-GFP 24 hr): eliminated the DR5 signal

LHGYFVFGPTGCNLERYI
Corrected rawintden - min (DR5 ECD): 1142815 | normalized (binding intensity) (DR5 ECD): 0.2786

ESTHQGSNFMNGTEGPNF
Corrected rawintden - min (DR5 ECD): 320074 | normalized (binding intensity) (DR5 ECD): 0.07803

MQCSCGIDYYTLKPEVNN
Corrected rawintden - min (DR5 ECD): 1701232 | normalized (binding intensity) (DR5 ECD): 0.4148

QYYLAEPWQLHGYFVFGP
Corrected rawintden - min (DR5 ECD): 996384 | normalized (binding intensity) (DR5 ECD): 0.2429

TEGPNFYVPFSNVTGVVR
Corrected rawintden - min (DR5 ECD): 1182345 | normalized (binding intensity) (DR5 ECD): 0.2883

CC(NC(=O)C(NC(=O)OCc1ccccc1)C(C)C)C(=O)NC(CC(=O)O)C(=O)CF (stereo not drawn) [zVAD, reference compound] (Cbz-Val-Ala-Asp-CH2F; configuration not given here)
annexin V staining with pan-caspase inhibitor (HCT116 cells; cells expressing MPZ-ecto peptide): diminished the extent of annexin V staining
